In experiment [1] the target is T1, recombinant human Aggrecanase-2 Agg2-Phe628 (Homo sapiens, UniProt Q9UNA0).
T1 sequence (Q9UNA0 262-628 limits assumed): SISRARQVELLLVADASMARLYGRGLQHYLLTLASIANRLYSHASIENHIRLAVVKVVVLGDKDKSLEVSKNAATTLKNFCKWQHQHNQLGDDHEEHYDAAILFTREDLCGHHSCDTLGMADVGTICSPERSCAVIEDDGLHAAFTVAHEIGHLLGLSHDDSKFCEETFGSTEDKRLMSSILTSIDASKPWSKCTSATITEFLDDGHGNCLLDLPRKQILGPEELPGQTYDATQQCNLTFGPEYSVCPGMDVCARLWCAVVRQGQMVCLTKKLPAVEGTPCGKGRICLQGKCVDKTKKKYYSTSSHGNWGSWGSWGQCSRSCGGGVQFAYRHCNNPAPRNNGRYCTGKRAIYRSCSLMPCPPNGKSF
Put plainly: Aggrecanase 2 in vitro enzyme assay (Agg-2 FRET, quenched fluorescent peptide substrate). The experiment is classed as biochemical. Set-up: purified recombinant human Aggrecanase-2 Agg2-Phe628 (MW=41,737); This is a truncated form of full-length human aggrecanase-2; made in house; host or cells: CHO cells. The procedure:
A continuous assay was used in which the substrate was a synthetic peptide containing a fluorescent group (o-aminobenzyl, Abz), which was quenched by energy transfer to a 2,4-dinitrophenyl group (Dnp). The buffer used in this assay was 50 mM HEPES, pH 7.5, 100 mM NaCl, 5 mM CaCl2, 0.1% CHAPS, 5% glycerol. The source of enzyme was purified recombinant human Aggrecanase-2 Agg2-Phe628 (MW=41,737). This is a truncated form of full-length human aggrecanase-2 that was expressed in CHO cells and purified. The final concentration of Agg2-Phe628 was 0.5 μg/ml. […] It is a synthetic peptide that is designed after a portion of brevican, one of the naturally occurring substrates of Aggrecanase-2, of the sequence Abz-[…]-Dap(Dnp)-KK—NH2 (mass=1740). The concentration of this substrate stock was spectrophotometrically determined using the extinction coefficient at 354 nm of 18,172 M^−1cm^−1. […] The final concentration of substrate in the assay was 25 μM.
Test compounds (in duplicate) were serially diluted from 2 mM to 0.01 μM in 100% DMSO. The total reaction volume was 100 μl. The buffer and enzyme were added first followed by addition of 10× inhibitor from the dilution plate. Enzyme and buffer alone samples were included in order to obtain the maximal rate of substrate cleavage. […] Then substrate was added, mixed and the reaction monitored for 40 min at 30° C. in kinetic mode using λex: 340 nm and % λem: 420 (GeminiXS Molecular Devices).

For experiment [2], the target named is T2, Agg-1 (Homo sapiens, UniProt O75173).
T2 sequence (O75173 213-837): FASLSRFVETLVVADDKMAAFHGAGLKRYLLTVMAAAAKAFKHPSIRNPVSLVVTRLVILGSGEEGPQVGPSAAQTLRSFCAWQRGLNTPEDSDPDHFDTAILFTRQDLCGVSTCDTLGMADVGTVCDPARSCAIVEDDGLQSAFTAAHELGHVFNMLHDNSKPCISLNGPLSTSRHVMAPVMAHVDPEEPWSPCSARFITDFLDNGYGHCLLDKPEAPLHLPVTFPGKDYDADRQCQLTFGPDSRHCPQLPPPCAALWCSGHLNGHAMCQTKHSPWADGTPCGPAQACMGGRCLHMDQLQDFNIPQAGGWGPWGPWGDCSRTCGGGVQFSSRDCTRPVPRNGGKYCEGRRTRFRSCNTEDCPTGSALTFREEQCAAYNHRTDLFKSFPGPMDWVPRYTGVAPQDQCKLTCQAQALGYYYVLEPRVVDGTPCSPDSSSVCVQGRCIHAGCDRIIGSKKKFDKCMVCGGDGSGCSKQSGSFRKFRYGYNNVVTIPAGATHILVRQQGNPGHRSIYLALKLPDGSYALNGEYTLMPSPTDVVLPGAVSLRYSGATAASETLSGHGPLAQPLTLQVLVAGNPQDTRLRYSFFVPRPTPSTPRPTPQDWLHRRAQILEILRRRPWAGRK
Put plainly: Agg-1 FRET assay. The experiment is classed as biochemical. Conditions: for inhibition at 66.7 µM: % inhibition @ 66.7 μM. An excerpt: The Agg-1/Agg-2 FRET data for N-[(8-hydroxyquinolin-2-yl)(phenyl)methyl]-2-phenoxyacetamide and 2-{[(phenoxyacetyl)amino](phenyl)methyl}quinolin-8-yl phenoxyacetate is presented in Table 1.

[3] abbreviates: read-out: Agg-2 IC50 (μM) or % Inhibition.
Where [4] appears, read: IC50, read-out: Agg-1 IC50 (μM) or % Inhibition.
[5] abbreviates: IC50, read-out: Agg-2 IC50 (μM) or % Inhibition.
The mark [6] stands for this setting: read-out: Agg-1 IC50 (μM) or % Inhibition.
[7] abbreviates: read-out: Agg-2 FRET Median IC50.

Several values for one entry are separate records, joined by “and”; a condition that tells them apart may be missing. Equal values may be shown once. Read-outs that look alike come from different tables or passages of the source.

On to `O=C(COc1ccccc1)NC(Cc1ccc2cccnc2c1O)c1ccccc1` (stereo not shown), for which the inhibition at 100 µM in experiment [1] (setting [3]) amounted to 59%. Further, the IC50 in experiment [2] (setting [4]) is 2.1 µM.

With `O=C(COc1ccccc1)NC(Cc1cc(Cl)c2cccnc2c1O)c1ccc2c(c1)OCO2` (stereo not shown), in experiment [1] (setting [5]), the IC50 worked out at 9.6 µM. Also, in experiment [2] (setting [6]), the inhibition at 22 µM turned out to be 67%.

Consider `O=C(NC(Cc1cc(Cl)c2cccnc2c1O)c1ccc(CN2CCOCC2)cc1)c1ccc(-c2ccccc2)cc1` (stereo not shown), for which the inhibition at 22 µM in experiment [1] (setting [3]) is 50%; in experiment [2] (setting [6]), 59%.

Take `Cc1ccc(-c2cccc(C(Cc3cc(Cl)c4cccnc4c3O)NC(=O)COCc3ccccc3)c2)s1` (stereo not shown): in experiment [1] (setting [3]), the inhibition at 22 µM is 56%. In addition, the inhibition at 66.7 µM in experiment [2] (setting [6]) worked out at 48%.

With `Cc1ccc(-c2cccc(C(Cc3cc(Cl)c4cccnc4c3O)NC(=O)C(C)(C)Oc3ccc(Cl)cc3)c2)s1` (stereo not shown), the inhibition at 22 µM in experiment [1] (setting [3]) was 51%. Besides, in experiment [2] (setting [6]), the inhibition at 66.7 µM worked out at 47%.

On to `Cc1ccc(-c2cccc(C(Cc3cc(Cl)c4cccnc4c3O)NC(=O)COc3ccccc3)c2)s1` (stereo not shown), for which the inhibition at 22 µM in experiment [1] (setting [3]) came out at 58%. Besides, the inhibition at 66.7 µM in experiment [2] (setting [6]) worked out at 42%.

For `Cc1ccc(-c2cccc(C(Cc3cc(Cl)c4cccnc4c3O)NC(=O)COc3ccc(C(C)(C)C)cc3)c2)s1` (stereo not shown), in experiment [1] (setting [3]), the inhibition at 200 µM was determined as 56%. Also, the inhibition at 22 µM in experiment [2] (setting [6]) came to 46%.

Regarding `O=C(COc1ccccc1)NC(Cc1cc(Cl)c2cccnc2c1O)c1cccc(CN2CCCC2)c1` (stereo not shown), the IC50 in experiment [1] (setting [5]) was 20 µM. Moreover, the inhibition at 200 µM in experiment [2] (setting [6]) was determined as 56%.

Take `CC(C)(Oc1ccc(Cl)cc1)C(=O)NC(Cc1cc(Cl)c2cccnc2c1O)c1cccc(CN2CCCC2)c1` (stereo not shown): in experiment [1] (setting [3]), the inhibition at 22 µM was 49%. Also, the inhibition at 66.7 µM in experiment [2] (setting [6]) was determined as 50%.

Regarding `CN(C)Cc1ccc(C(Cc2cc(Cl)c3cccnc3c2O)NC(=O)COc2ccccc2)o1` (stereo not shown), the inhibition at 200 µM in experiment [1] (setting [3]) is 68%. In experiment [2] (setting [4]), the 50% inhibitory concentration (IC50) is 16.8 µM.

Consider `CC(C)C(=O)NC(Cc1cc(Cl)c2cccnc2c1O)c1ccc(CN(C)C)o1` (stereo not shown), for which the inhibition at 200 µM came out at 49% in experiment [1] (setting [3]) and 56% in experiment [2] (setting [6]).

With `O=C(COc1ccc(-c2ccccc2)cc1)NC(c1ccccc1Cl)c1cc(Cl)c2cccnc2c1O` (stereo not shown) [2-(biphenyl-4-yloxy)-N-[(5-chloro-8-hydroxyquinolin-7-yl)(2-chlorophenyl)methyl]acetamide], the IC50 in experiment [1] (read-out: Agg2 IC50) is 3.3 µM; in experiment [2] (read-out: Agg1 IC50) it was 66 to 200 µM.

In the case of `O=C(COc1ccc(-c2ccccc2)cc1)NC(c1ccccc1)c1cc(Cl)c2cccnc2c1O` (stereo not shown) [2-(biphenyl-4-yloxy)-N-[(5-chloro-8-hydroxyquinolin-7-yl)(phenyl)methyl]acetamide], the IC50 in experiment [1] (read-out: Agg2 IC50) is 2 µM; in experiment [2] (read-out: Agg1 IC50), 7.4 to 20 µM.

With `COc1ccccc1C(NC(=O)COc1ccccc1)c1cc(Cl)c2cccnc2c1O` (stereo not shown) [Example 122, N-[(5-chloro-8-hydroxyquinolin-7-yl)(2-methoxyphenyl)methyl]-2-phenoxyacetamide], the IC50 is 2.3 µM in experiment [1] (read-out: Agg2 IC50) and 2.34 µM in experiment [1] (setting [7]). In addition, the inhibition at 667 µM in experiment [2] (@ 667000 nM, read-out: Agg1 %) amounted to 48%.

With `COc1cccc(C(NC(=O)COc2ccccc2)c2cc(Cl)c3cccnc3c2O)c1` (stereo not shown) [Example 126, N-[(5-chloro-8-hydroxyquinolin-7-yl)(3-methoxyphenyl)methyl]-2-phenoxyacetamide], in experiment [1] (read-out: Agg2 IC50), the IC50 amounted to 1.8 µM. Moreover, the inhibition at 22 µM in experiment [2] (@ 22000 nM, read-out: Agg1 %) was determined as 44%.

On to `CCOC(=O)Cc1cccc(C(NC(=O)COc2ccccc2)c2cc(Cl)c3cccnc3c2O)c1` (stereo not shown) [Example 127, ethyl(3-{(5-chloro-8-hydroxyquinolin-7-yl)[(phenoxyacetyl)amino]methyl}phenyl)acetate], for which, in experiment [1] (@ 33000 nM), the inhibition at 33 µM amounted to 50%. Further, in experiment [1] (setting [7]), the IC50 is 1.45 µM. For the same molecule, the inhibition at 22 µM in experiment [2] (@ 22000 nM, read-out: Agg1 %) amounted to 41%.

`COc1ccc(Oc2cccc(C(NC(=O)COc3ccccc3)c3cc(Cl)c4cccnc4c3O)c2)cc1` (stereo not shown) [Example 128, N-{(5-chloro-8-hydroxyquinolin-7-yl)[3-(4-methoxyphenoxy)phenyl]methyl}-2-phenoxyacetamide]: the IC50 in experiment [1] (read-out: Agg2 IC50) amounted to 1.1 µM. For the same molecule, the inhibition at 7.4 µM in experiment [2] (@ 7400 nM, read-out: Agg1 %) is 57%.

As for `O=C(COc1ccccc1)NC(c1ccccc1Cl)c1cc([N+](=O)[O-])c2cccnc2c1O` (stereo not shown) [N-[(2-chlorophenyl)(8-hydroxy-5-nitroquinolin-7-yl)methyl]-2-phenoxyacetamide], the IC50 in experiment [2] (read-out: Agg1 IC50) turned out to be 11.4 µM.

On to `O=C(COc1ccccc1)NC(c1ccccc1F)c1cc(Cl)c2cccnc2c1O` (stereo not shown) [N-[(5-chloro-8-hydroxyquinolin-7-yl)(2-fluorophenyl)methyl]-2-phenoxyacetamide], for which, in experiment [2] (@ 22200 nM, read-out: Agg1 %), the inhibition at 22.2 µM was found to be 46%.

`O=C(COc1ccccc1)NC(c1ccc([N+](=O)[O-])cc1)c1cc(Cl)c2cccnc2c1O` (stereo not shown) [N-[(5-chloro-8-hydroxyquinolin-7-yl)(4-nitrophenyl)methyl]-2-phenoxyacetamide]: the IC50 in experiment [2] (read-out: Agg1 IC50) was more than 20 µM.

As for `O=C(COc1ccccc1)NC(c1ccccc1)c1cc(Cl)c2cccnc2c1O` (stereo not shown) [N-[(5-chloro-8-hydroxyquinolin-7-yl)(phenyl)methyl]-2-phenoxyacetamide], the IC50 in experiment [2] (read-out: Agg1 IC50) was more than 22 µM.

Take `O=C(COc1ccccc1)NC(c1ccccc1)c1cc([N+](=O)[O-])c2cccnc2c1O` (stereo not shown) [N-[(8-hydroxy-5-nitroquinolin-7-yl)(phenyl)methyl]-2-phenoxyacetamide]: the IC50 in experiment [2] (read-out: Agg1 IC50) was determined as 19.3 µM.

In the case of `COc1ccc(OCC(=O)NC(c2ccccc2)c2ccc3cccnc3c2O)cc1` (stereo not shown) [N-[(8-hydroxyquinolin-7-yl)(phenyl)methyl]-2-(4-methoxyphenoxy)acetamide], in experiment [1] (setting [7]), the concentration for half-maximal inhibition (IC50) was 3.34 µM.

Turning to `Cc1ccc(OCC(=O)NC(c2ccccc2)c2ccc3cccnc3c2O)cc1` (stereo not shown) [N-[(8-hydroxyquinolin-7-yl)(phenyl)methyl]-2-(4-methylphenoxy)acetamide], the IC50 in experiment [1] (setting [7]) turned out to be 2.47 µM.

Take `O=C(COc1ccc(Oc2ccccc2)cc1)NC(c1ccccc1)c1ccc2cccnc2c1O` (stereo not shown) [N-[(8-hydroxyquinolin-7-yl)(phenyl)methyl]-2-(4-phenoxyphenoxy)acetamide]: in experiment [1] (setting [7]), the IC50 was 0.908 µM.

Consider `CC(=O)NC(c1ccccc1)c1ccc2cccnc2c1O` (stereo not shown) [N-[(8-hydroxyquinolin-7-yl)(phenyl)methyl]acetamide], for which the “Agg-2 FRET Median PCT INHIB” value in experiment [1] (concentration not given) is reported as 50%.

As for `O=C(NC(c1ccccc1)c1ccc2cccnc2c1O)c1ccccc1` (stereo not shown) [N-[(8-hydroxyquinolin-7-yl)(phenyl)methyl]benzamide], the IC50 in experiment [1] (setting [7]) is 4.7 µM and 5.47 µM.

In the case of `C=CCOc1ccc(C(NC(=O)COc2ccccc2)c2cc(Cl)c3cccnc3c2O)cc1` (stereo not shown) [N-[[4-(allyloxy)phenyl](5-chloro-8-hydroxyquinolin-7-yl)methyl]-2-phenoxyacetamide], in experiment [2] (@ 22000 nM, read-out: Agg1 %), the inhibition at 22 µM is 52%.

Regarding “N-[(5-chloro-8-hydroxyquinolin-7-yl)(4-methoxyphenyl)methyl]-2-(4-methylphenoxy)acetamide [Example 80]”, the IC50 in experiment [1] (setting [7]) stood at 0.774 µM.

Regarding “N-[(8-hydroxyquinolin-7-yl)(4-methoxyphenyl)methyl]-2-(4-phenoxyphenoxy)acetamide [Example 76]”, the IC50 in experiment [1] (setting [7]) came to 3.22 µM.

The record behind these values is patent US20080269213A1, “8-Hydroxyquinoline compounds and methods thereof” (Wyeth, priority 2006, published 2008).
